Values quoted from earlier work, collected in patent publication US4344438A, “Optical sensor of plasma constituents” (The United States of America as represented by the …, priority 1980, dated 1982).

Target: Concanavalin-A (Con-A)
Conditions: from So and Goldstein, Biochem., Biophys. Acta 165, 398 (1968); read-out: Binding constant K of sugar to Concanavalin-A

For OC[C@H]1O[C@H](O[C@H]2[C@H](O)[C@@H](O)C(O)O[C@@H]2CO)[C@H](O)[C@@H](O)[C@@H]1O (mixture of isomers) [Maltose], the Kd is given as 350 µM.
In the case of O=[N+]([O-])c1ccc(O[C@H]2O[C@H](CO)[C@@H](O)[C@H](O)[C@@H]2O)cc1 [p-nitrophenol-α-D mannopyranoside], the Kd is listed as 29.4 µM.
In the case of OC[C@H]1O[C@H](OC[C@H]2OC(O)[C@H](O)[C@@H](O)[C@@H]2O)[C@H](O)[C@@H](O)[C@@H]1O (some centres unmarked) [Isomaltose], the Kd is listed as 180 µM.
For O=C(CO)[C@@H](O)[C@H](O)[C@H](O)CO [Fructose], the Kd is given as 730 µM.
In the case of OC[C@H]1O[C@@](CO)(O[C@H]2O[C@H](CO)[C@@H](O)[C@H](O)[C@H]2O)[C@@H](O)[C@@H]1O [Sucrose], the Kd is given as 1900 µM.
